According to patent US9676782B2, “Substituted pyrazolo[1,5-a]pyrazines as negative allosteric modulators of metabotropic glutamate receptor 3” (Vanderbilt University, priority 2014, dated 2017):
Where two headings read alike, the source gives them in different places.

How the values were obtained:
[1] = biological target: rat mGlu5 (Rattus norvegicus (Rat), UniProt P31424); test: mGlu5 Ca2+ flux assay; assay type: cell-based; details: for Emax at 30 µM: read-out: rat mGlu5 Glu max (%); for Fold selectivity (mGlu3 vs. mGlu5): ratio of rat mGlu5 EC50 or IC50 to rat mGlu3 IC50
Summary of the method: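 Ca2+ flux read kinetically (FDSS7000) after overnight culture at 37° C/5% CO2 and a 5 min room-temperature buffer step following dye removal. Signals expressed per well as F/F0 and normalized to peak glutamate response; EC50 fitted by free 4-parameter logistic, three replicates per concentration equally weighted.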

[2] = biological target: rat mGlu3 (Rattus norvegicus (Rat), UniProt P31422); test: mGlu3 Ca2+ flux assay; assay type: cell-based; details: for IC50: NAM potency, decrease of glutamate EC80 response, >30,000 = no measurable activity, >10,000 = no plateau, read-out: rat mGlu3 IC50; for remaining activity at 30 µM: amplitude of response at 30 μM test compound as % of maximal response to glutamate, read-out: rat mGlu3 Glu max (%)
Summary of the method: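 This calcium mobilization assay used rat mGlu3 cells cultured overnight (37° C., 5% CO2) and read on the FDSS7000 after a 10 minute room-temperature incubation in 20 μL assay buffer. Each of 360 readings per well was divided by its initial value (F/F0). Potency came from fitting normalized responses against log concentration with an unconstrained 4 parameter logistic equation, weighting triplicate points equally.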

[3] = PAM, amplitude of response at 30 μM test compound as % of maximal response to glutamate
[4] = read-out: rat mGlu5 EC50 or IC50

Chain of rat mGlu5 (P31424 21-1203): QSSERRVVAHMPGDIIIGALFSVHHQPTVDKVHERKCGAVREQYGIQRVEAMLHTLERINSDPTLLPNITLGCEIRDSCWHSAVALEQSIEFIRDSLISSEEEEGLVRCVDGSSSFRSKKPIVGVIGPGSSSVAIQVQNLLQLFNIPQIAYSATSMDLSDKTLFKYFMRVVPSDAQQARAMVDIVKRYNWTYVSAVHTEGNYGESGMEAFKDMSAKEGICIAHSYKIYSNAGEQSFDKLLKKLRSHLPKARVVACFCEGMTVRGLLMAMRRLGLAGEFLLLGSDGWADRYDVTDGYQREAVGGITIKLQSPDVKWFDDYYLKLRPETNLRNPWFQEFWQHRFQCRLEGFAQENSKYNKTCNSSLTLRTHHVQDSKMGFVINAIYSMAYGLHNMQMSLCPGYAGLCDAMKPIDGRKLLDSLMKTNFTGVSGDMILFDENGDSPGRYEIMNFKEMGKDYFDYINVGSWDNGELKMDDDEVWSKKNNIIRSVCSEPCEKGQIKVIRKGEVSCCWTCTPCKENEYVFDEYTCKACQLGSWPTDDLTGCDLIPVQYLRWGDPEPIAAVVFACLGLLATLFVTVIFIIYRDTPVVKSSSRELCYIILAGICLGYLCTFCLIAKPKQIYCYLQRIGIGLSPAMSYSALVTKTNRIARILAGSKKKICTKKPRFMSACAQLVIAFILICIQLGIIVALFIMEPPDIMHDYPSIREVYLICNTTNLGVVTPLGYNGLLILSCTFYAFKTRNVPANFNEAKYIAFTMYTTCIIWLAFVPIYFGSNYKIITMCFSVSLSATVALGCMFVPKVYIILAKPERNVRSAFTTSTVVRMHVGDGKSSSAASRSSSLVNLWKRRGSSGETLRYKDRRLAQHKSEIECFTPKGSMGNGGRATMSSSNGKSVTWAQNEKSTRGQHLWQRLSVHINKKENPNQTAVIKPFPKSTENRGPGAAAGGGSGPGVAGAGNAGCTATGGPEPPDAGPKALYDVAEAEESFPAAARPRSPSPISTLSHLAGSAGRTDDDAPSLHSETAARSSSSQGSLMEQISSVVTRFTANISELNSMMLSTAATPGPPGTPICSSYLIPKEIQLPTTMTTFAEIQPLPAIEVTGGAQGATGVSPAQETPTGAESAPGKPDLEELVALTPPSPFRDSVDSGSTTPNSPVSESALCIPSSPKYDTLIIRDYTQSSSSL
Chain of rat mGlu3 (P31422 23-879): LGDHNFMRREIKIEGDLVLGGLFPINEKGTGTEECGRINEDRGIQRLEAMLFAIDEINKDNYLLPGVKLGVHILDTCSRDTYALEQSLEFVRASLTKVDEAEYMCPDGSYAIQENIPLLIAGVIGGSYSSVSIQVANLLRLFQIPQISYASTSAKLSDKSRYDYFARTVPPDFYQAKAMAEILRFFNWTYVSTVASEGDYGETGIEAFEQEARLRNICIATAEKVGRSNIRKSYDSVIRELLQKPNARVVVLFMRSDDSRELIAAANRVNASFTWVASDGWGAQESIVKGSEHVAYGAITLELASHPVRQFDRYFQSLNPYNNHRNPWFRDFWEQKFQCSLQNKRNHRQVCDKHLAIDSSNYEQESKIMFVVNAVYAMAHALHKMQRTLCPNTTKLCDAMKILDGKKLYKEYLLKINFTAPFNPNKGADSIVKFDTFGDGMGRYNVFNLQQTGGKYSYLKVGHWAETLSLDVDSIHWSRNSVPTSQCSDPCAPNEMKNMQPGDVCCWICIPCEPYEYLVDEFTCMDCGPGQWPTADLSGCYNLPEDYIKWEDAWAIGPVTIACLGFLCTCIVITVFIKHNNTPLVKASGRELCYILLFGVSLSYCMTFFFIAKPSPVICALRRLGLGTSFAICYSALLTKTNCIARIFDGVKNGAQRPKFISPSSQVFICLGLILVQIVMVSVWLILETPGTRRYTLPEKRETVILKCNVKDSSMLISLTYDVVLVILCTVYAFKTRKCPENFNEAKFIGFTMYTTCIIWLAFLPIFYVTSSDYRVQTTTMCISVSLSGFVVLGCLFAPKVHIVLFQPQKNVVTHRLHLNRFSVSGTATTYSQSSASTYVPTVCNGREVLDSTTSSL

C[C@H]1CN(c2ccc(F)cc2)C(=O)c2cc(CNc3ccc(F)cc3F)nn21 [Compound 76, (S)-2-(((2,4-difluorophenyl)amino)methyl)-5-(4-fluorophenyl)-7-methyl-6,7-dihydropyrazolo[1,5-a]pyrazin-4(5H)-one] was tested, and the Emax at 30 µM [1, 3] was 86.1%, the “Fold selectivity (mGlu3 vs. mGlu5)” value [1] was 7.00 and the EC50 [1, 4] was 8.19 µM. It also gave an IC50 [2] of 1.17 µM and a remaining activity at 30 µM [2] of 0.35%.

C[C@@H]1CN(c2ccc(F)cc2)C(=O)c2cc(CNc3ccc(F)c(F)c3)nn21 [Compound 77, (R)-2-(((3,4-difluorophenyl)amino)methyl)-5-(4-fluorophenyl)-7-methyl-6,7-dihydropyrazolo[1,5-a]pyrazin-4(5H)-one] was tested, and the “Fold selectivity (mGlu3 vs. mGlu5)” value [1] was greater than 19, the EC50 [1, 4] was greater than 30 µM and the IC50 [2] was 1.57 µM. For the same compound, the remaining activity at 30 µM [2] was 3.77%.

In the case of C[C@H]1CN(c2ccc(F)cc2)C(=O)c2cc(CNc3ccc(F)c(F)c3)nn21 [Compound 78, (S)-2-(((3,4-difluorophenyl)amino)methyl)-5-(4-fluorophenyl)-7-methyl-6,7-dihydropyrazolo[1,5-a]pyrazin-4(5H)-one], the Emax at 30 µM [1, 3] is reported as 61.6%, the “Fold selectivity (mGlu3 vs. mGlu5)” value [1] is reported as greater than 8.5 and the EC50 [1, 4] is reported as greater than 10 µM. For the same compound, the IC50 [2] was 1.17 µM and the remaining activity at 30 µM [2] was 1.23%.

For C[C@@H]1CN(c2ccc(F)cc2)C(=O)c2cc(CNc3c(F)cc(F)cc3F)nn21 [Compound 79, (R)-5-(4-fluorophenyl)-7-methyl-2-(((2,4,6-trifluorophenyl)amino)methyl)-6,7-dihydropyrazolo[1,5-a]pyrazin-4(5H)-one], the Emax at 30 µM [1, 3] was 40%, the “Fold selectivity (mGlu3 vs. mGlu5)” value [1] was greater than 7.8 and the EC50 [1, 4] was greater than 10 µM. The IC50 [2] was 1.28 µM and the remaining activity at 30 µM [2] was 1.49%.

In the case of C[C@H]1CN(c2ccc(F)cc2)C(=O)c2cc(CNc3c(F)cc(F)cc3F)nn21 [Compound 80, (S)-5-(4-fluorophenyl)-7-methyl-2-(((2,4,6-trifluorophenyl)amino)methyl)-6,7-dihydropyrazolo[1,5-a]pyrazin-4(5H)-one], the Emax at 30 µM [1, 3] is reported as 95.8%, the “Fold selectivity (mGlu3 vs. mGlu5)” value [1] is reported as 1.79 and the EC50 [1, 4] is reported as 7.75 µM. The IC50 [2] was 4.32 µM and the remaining activity at 30 µM [2] was -0.58%.

For COc1ccc(NCc2cc3n(n2)CCN(c2ccc(Cl)cc2)C3=O)cc1 [Compound 81, 5-(4-chlorophenyl)-2-(((4-methoxyphenyl)amino)methyl)-6,7-dihydropyrazolo[1,5-a]pyrazin-4(5H)-one], the “Fold selectivity (mGlu3 vs. mGlu5)” value [1] was greater than 22, the EC50 [1, 4] was greater than 30 µM and the IC50 [2] was 1.36 µM. It also gave a remaining activity at 30 µM [2] of 15.4%.

For CN(Cc1cc2n(n1)CCN(c1ccc(F)cc1)C2=O)c1ccccc1 [Compound 82, 5-(4-fluorophenyl)-2-((methyl(phenyl)amino)methyl)-6,7-dihydropyrazolo[1,5-a]pyrazin-4(5H)-one], the “Fold selectivity (mGlu3 vs. mGlu5)” value [1] was greater than 24, the EC50 [1, 4] was greater than 30 µM and the IC50 [2] was 1.22 µM. For the same compound, the remaining activity at 30 µM [2] was 1.01%.

For CN(Cc1cc2n(n1)CCN(c1ccc(F)cc1)C2=O)c1ccccc1F [Compound 83, 5-(4-fluorophenyl)-2-(((2-fluorophenyl)(methyl)amino)methyl)-6,7-dihydropyrazolo[1,5-a]pyrazin-4(5H)-one], the “Fold selectivity (mGlu3 vs. mGlu5)” value [1] was greater than 34, the EC50 [1, 4] was greater than 30 µM and the IC50 [2] was 0.876 µM. For the same compound, the remaining activity at 30 µM [2] was -0.98%.

With CN(Cc1cc2n(n1)CCN(c1ccc(F)cc1)C2=O)c1ccccc1Cl [Compound 84, 2-(((2-chlorophenyl)(methyl)amino)methyl)-5-(4-fluorophenyl)-6,7-dihydropyrazolo[1,5-a]pyrazin-4(5H)-one] the IC50 ([1]; compound noted as NAM or partial antagonist (PAnt) at mGlu5, glutamate EC80, read-out: rat mGlu5 EC50 or IC50) was greater than 10 µM, the Emax at 30 µM ([1]; compound noted as NAM or partial antagonist (PAnt) at mGlu5, response at 30 μM as % of maximal glutamate response) was 73.4% and the “Fold selectivity (mGlu3 vs. mGlu5)” value [1] was greater than 5.3. It also gave an IC50 [2] of 1.86 µM and a remaining activity at 30 µM [2] of 0.82%.

With COc1ccccc1N(C)Cc1cc2n(n1)CCN(c1ccc(F)cc1)C2=O [Compound 85, 5-(4-fluorophenyl)-2-(((2-methoxyphenyl)(methyl)amino)methyl)-6,7-dihydropyrazolo[1,5-a]pyrazin-4(5H)-one] the “Fold selectivity (mGlu3 vs. mGlu5)” value [1] was greater than 3.1, the EC50 [1, 4] was greater than 30 µM and the IC50 [2] was 9.48 µM. It also gave a remaining activity at 30 µM [2] of -7.96%.

For CN(Cc1cc2n(n1)CCN(c1ccc(F)cc1)C2=O)c1cccc(F)c1 [Compound 86, 5-(4-fluorophenyl)-2-(((3-fluorophenyl)(methyl)amino)methyl)-6,7-dihydropyrazolo[1,5-a]pyrazin-4(5H)-one], the Emax at 30 µM [1, 3] was 110%, the “Fold selectivity (mGlu3 vs. mGlu5)” value [1] was 13.06 and the EC50 [1, 4] was 7.76 µM. The IC50 [2] was 0.594 µM and the remaining activity at 30 µM [2] was 1.68%.

In the case of CN(Cc1cc2n(n1)CCN(c1ccc(F)cc1)C2=O)c1cccc(Cl)c1 [Compound 87, 2-(((3-chlorophenyl)(methyl)amino)methyl)-5-(4-fluorophenyl)-6,7-dihydropyrazolo[1,5-a]pyrazin-4(5H)-one], the Emax at 30 µM [1, 3] is reported as 41.9%, the “Fold selectivity (mGlu3 vs. mGlu5)” value [1] is reported as greater than 12 and the EC50 [1, 4] is reported as greater than 10 µM. For the same compound, the IC50 [2] was 0.805 µM and the remaining activity at 30 µM [2] was 0.71%.

In the case of COc1cccc(N(C)Cc2cc3n(n2)CCN(c2ccc(F)cc2)C3=O)c1 [Compound 88, 5-(4-fluorophenyl)-2-(((3-methoxyphenyl)(methyl)amino)methyl)-6,7-dihydropyrazolo[1,5-a]pyrazin-4(5H)-one], the “Fold selectivity (mGlu3 vs. mGlu5)” value [1] is reported as greater than 29, the EC50 [1, 4] is reported as greater than 30 µM and the IC50 [2] is reported as 1.02 µM. It also gave a remaining activity at 30 µM [2] of 0.55%.

CN(Cc1cc2n(n1)CCN(c1ccc(F)cc1)C2=O)c1ccc(F)cc1 [Compound 89, 5-(4-fluorophenyl)-2-(((4-fluorophenyl)(methyl)amino)methyl)-6,7-dihydropyrazolo[1,5-a]pyrazin-4(5H)-one] was tested, and the “Fold selectivity (mGlu3 vs. mGlu5)” value [1] was greater than 64, the EC50 [1, 4] was greater than 30 µM and the IC50 [2] was 0.467 µM. It also gave a remaining activity at 30 µM [2] of 1.29%.

In the case of CN(Cc1cc2n(n1)CCN(c1ccc(F)cc1)C2=O)c1ccc(Cl)cc1 [Compound 90, 2-(((4-chlorophenyl)(methyl)amino)methyl)-5-(4-fluorophenyl)-6,7-dihydropyrazolo[1,5-a]pyrazin-4(5H)-one], the Emax at 30 µM [1, 3] is reported as 87.3%, the “Fold selectivity (mGlu3 vs. mGlu5)” value [1] is reported as 5.08 and the EC50 [1, 4] is reported as 4.5 µM. The IC50 [2] was 0.885 µM and the remaining activity at 30 µM [2] was 1.4%.

With CN(Cc1cc2n(n1)CCN(c1ccc(F)cc1)C2=O)c1ccc(Br)cc1 [Compound 91, 2-(((4-bromophenyl)(methyl)amino)methyl)-5-(4-fluorophenyl)-6,7-dihydropyrazolo[1,5-a]pyrazin-4(5H)-one] the “Fold selectivity (mGlu3 vs. mGlu5)” value [1] was greater than 50, the EC50 [1, 4] was greater than 30 µM and the IC50 [2] was 0.592 µM. For the same compound, the remaining activity at 30 µM [2] was 2.53%.

In the case of CN(Cc1cc2n(n1)CCN(c1ccc(F)cc1)C2=O)c1ccc(C#N)cc1 [Compound 93, 4-(((5-(4-fluorophenyl)-4-oxo-4,5,6,7-tetrahydropyrazolo[1,5-a]pyrazin-2-yl)methyl)(methyl)amino)benzonitrile], the Emax at 30 µM [1, 3] is reported as 57.2%, the “Fold selectivity (mGlu3 vs. mGlu5)” value [1] is reported as greater than 8.8 and the EC50 [1, 4] is reported as greater than 10 µM. It also gave an IC50 [2] of 1.13 µM and a remaining activity at 30 µM [2] of 1.47%.

In the case of CN(Cc1cc2n(n1)CCN(c1ccc(F)cc1)C2=O)c1cc(F)cc(F)c1 [Compound 94, 2-(((3,5-difluorophenyl)(methyl)amino)methyl)-5-(4-fluorophenyl)-6,7-dihydropyrazolo[1,5-a]pyrazin-4(5H)-one], the Emax at 30 µM [1, 3] is reported as 29.9%, the “Fold selectivity (mGlu3 vs. mGlu5)” value [1] is reported as greater than 15 and the EC50 [1, 4] is reported as greater than 10 µM. It also gave an IC50 [2] of 0.66 µM and a remaining activity at 30 µM [2] of 1.58%.
